Reference: patent US5393923A, “3,5-di-t-butyl-4-hydroxyphenylmethylhydroxylamines and their derivatives, pharmaceutical compositions, and methods of use therefor” (Warner-Lambert Company, priority 1993, dated 1995)
Where a name gives a salt, the structure may show the parent alone. Read-outs that look alike come from different tables or passages of the source.

Columns and labels:
[1] = target: T1, 5-lipoxygenase (Rattus norvegicus, UniProt P12527); assay: ARBL whole cell 5-lipoxygenase assay (LTB4 formation, RBL-1 cells); format: cell-based
T1 construct: host or cells: RBL-1
T1 sequence (P12527 1-673): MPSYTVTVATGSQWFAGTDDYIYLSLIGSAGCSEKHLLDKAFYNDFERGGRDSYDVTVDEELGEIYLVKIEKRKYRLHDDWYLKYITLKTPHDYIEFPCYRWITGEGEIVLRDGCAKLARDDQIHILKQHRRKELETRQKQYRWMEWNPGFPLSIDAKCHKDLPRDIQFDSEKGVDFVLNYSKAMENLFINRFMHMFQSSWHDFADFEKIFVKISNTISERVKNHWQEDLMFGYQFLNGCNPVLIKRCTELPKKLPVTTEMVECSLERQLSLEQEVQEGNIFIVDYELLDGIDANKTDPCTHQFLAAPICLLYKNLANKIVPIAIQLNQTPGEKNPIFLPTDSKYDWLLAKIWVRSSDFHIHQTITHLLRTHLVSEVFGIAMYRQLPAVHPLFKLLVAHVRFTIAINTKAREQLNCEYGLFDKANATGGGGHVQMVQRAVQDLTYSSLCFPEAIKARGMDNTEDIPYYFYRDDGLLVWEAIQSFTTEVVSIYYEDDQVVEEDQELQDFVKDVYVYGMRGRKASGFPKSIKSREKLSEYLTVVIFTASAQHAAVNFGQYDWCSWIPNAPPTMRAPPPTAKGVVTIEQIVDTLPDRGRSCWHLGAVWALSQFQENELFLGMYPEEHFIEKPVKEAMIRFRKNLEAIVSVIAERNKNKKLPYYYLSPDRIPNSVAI
Description: (§1) ARBL/ARBC WHOLE CELL 5-LIPOXYGENASE AND CYCLOOXYGENASE ASSAYS The rat basophilic leukemia cell line (RBL-1) was obtained from the American Type Culture Collection (Rockville, Md.). Radioimmunoassay (RIA) kits of LTB4 and PGF2α were obtained from Amersham (Arlington Heights, Ill.) and Seragen (Boston, Mass.), respectively. RBL-1 cells are grown in suspension culture in Eagle's minimum essential medium supplemented with 12% fetal bovine serum at 37° C. in an incubator supplied with air-5% carbon dioxide. Cells are harvested by centrifugation. They are washed with cold phosphate-buffered saline, pH 7.4 (PBS; NaCl, 7.1 g; Na2 HPO4, 1.15 g; KH2 PO4, 0.2 g; and KCl, 0.2 g/L). Cells are finally suspended in PBS containing 1.0 mM calcium at a density of 2×10^6 cells/mL. Cells are incubated […] test agent (in DMSO) (1% DMSO is without effect on arachidonic acid metabolism) for 10 minutes at room temperature. Calcium ionophore A23187 (5 μM) is added and cells are incubated for 7 minutes at 37° C. The reaction is stopped by chilling the tubes on ice for 10 minutes. Cells are separated by centrifugation and the supernatant is stored at -20° C. Aliquots (100 μL) are analyzed for LTB4 and PGF2α using radioimmunoassay kits as provided by the supplier. Table 1 contains biochemical data for compounds of Formula I obtained from this whole cell assay as amount of inhibition at given μM or IC50 s which are calculated as the concentration of a test compound in micromoles (μM) causing 50% inhibition of LTB4 or PGF2αformation.

[2] = target: T2, cyclooxygenase (Rattus norvegicus, UniProt Q63921); assay: ARBC whole cell cyclooxygenase assay (PGF2α formation, RBL-1 cells); format: cell-based
T2 construct: host or cells: RBL-1
T2 sequence (Q63921 27-602): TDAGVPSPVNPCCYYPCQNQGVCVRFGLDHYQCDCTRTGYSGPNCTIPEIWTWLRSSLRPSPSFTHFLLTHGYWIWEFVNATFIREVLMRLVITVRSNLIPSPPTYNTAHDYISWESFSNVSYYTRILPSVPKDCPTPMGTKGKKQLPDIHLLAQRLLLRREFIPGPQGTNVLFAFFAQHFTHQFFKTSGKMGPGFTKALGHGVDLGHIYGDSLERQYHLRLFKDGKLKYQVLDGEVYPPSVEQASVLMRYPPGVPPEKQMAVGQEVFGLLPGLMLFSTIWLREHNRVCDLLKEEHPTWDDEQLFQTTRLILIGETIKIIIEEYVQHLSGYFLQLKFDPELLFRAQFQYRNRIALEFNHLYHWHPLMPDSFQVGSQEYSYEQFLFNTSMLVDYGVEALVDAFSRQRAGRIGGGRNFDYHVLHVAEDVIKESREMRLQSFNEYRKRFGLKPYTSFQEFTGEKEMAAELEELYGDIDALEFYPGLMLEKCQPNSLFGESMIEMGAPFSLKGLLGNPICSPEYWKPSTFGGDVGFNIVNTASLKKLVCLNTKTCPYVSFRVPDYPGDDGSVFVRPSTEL
Description: as §1

[3] = system: carrageenan-induced rat foot paw edema; assay: Carrageenan-induced rat foot paw edema-2 (CFE-2) assay; format: in vivo; conditions: dosed 1 hour before carrageenan, edema measured 5 hours after, read-out: CFE ID40
Description: CARRAGEENAN-INDUCED RAT FOOT PAW EDEMA-2 (CFE-2) ASSAY: PROTOCOL
Carrageenan solution (1% w/v) is prepared by dissolving 100 mg carrageenan (Marine Colloidal Div., Springfield, N.J.) in 10 mL of sterile saline (0.9%) solution (Travenol). The solution is vortexed for 30 to 45 minutes. Animals are dosed with compound 1 hour before carrageenan challenge. Foot paw edema is induced by injecting 0.10 mL of the 1% carrageenan subcutaneously into the plantar portion of the right hind paw of each rat under light anesthesia. Initial foot paw volume is measured immediately following carrageenan challenge using mercury plethysmography (Buxco Electronics). Edema is measured 5 hours after carrageenan. The difference between the 5-hour and the initial paw volume is expressed as delta edema. The delta edema for each test group of animals is used to calculate the percent inhibition of edema achieved by the compound at the test dose compared with the vehicle control group. The ID40 (the dose at which swelling is inhibited by 40%) is calculated by probit analysis for the dose at which 40% inhibition occurs.

[4] = A23187, read-out: ARBL inhibition of LTB4 at given concentration
[5] = A23187, class symbol, read-out: ARBC inhibition at given concentration (N)
[6] = A23187, class symbol, read-out: ARBL inhibition at given concentration (N)

Compound	inhibition at 16 µM [1, 4]	inhibition at 16 µM [2, 5]	further results
CC(C)C(=O)N(O)C(C)c1cc(C(C)(C)C)c(O)c(C(C)(C)C)c1 (stereo not shown) [Example 4, N-[1-[3,5-Bis(1,1-dimethylethyl)-4-hydroxyphenyl]-ethyl]-N-hydroxy-2-methylpropanamide]	> 91%	< 40%	
CCOC(=O)N(O)C(C)c1cc(C(C)(C)C)c(O)c(C(C)(C)C)c1 (stereo not shown) [Example 6, [1-[3,5-Bis(1,1-dimethylethyl)-4-hydroxyphenyl]-ethyl]hydroxycarbamic acid, ethyl ester]	> 96%	< 40%	
CNC(=S)N(O)C(C)c1cc(C(C)(C)C)c(O)c(C(C)(C)C)c1 (stereo not shown) [Example 7, N-[1-[3,5-Bis(1,1-dimethylethyl)-4-hydroxyphenyl]-ethyl]-N-hydroxy-N'-methylthiourea]		< 40%	inhibition at 16 µM [1, 6]: < 40%
CNC(=O)N(O)C(C)c1cc(C(C)(C)C)c(O)c(C(C)(C)C)c1 (stereo not shown) [Example 8, N-[1-[3,5-Bis(1,1-dimethylethyl)-4-hydroxyphenyl]-ethyl]-N-hydroxy-N'-methylure]			inhibition at 16 µM [1, 6]: < 40%; inhibition at 16 µM ([2]; A23187, read-out: ARBC inhibition of PGF2α at given concentration): 45%
CC(=O)ON(Cc1cc(C(C)(C)C)c(O)c(C(C)(C)C)c1)C(C)=O [Example 12, N-(Acetyloxy)-N-[[3,5-bis(1,1-dimethylethyl)-4-hydroxyphenyl]methyl]acetamide, 0.3 hydrate]	95%	< 40%	
CC(C)C(=O)N(O)Cc1cc(C(C)(C)C)c(O)c(C(C)(C)C)c1 [Example 14, N-[[3,5-Bis(1,1-dimethylethyl)-4-hydroxyphenyl]-methyl]-N-hydroxy-2-methylpropanamide]	95%	< 40%	
CC(=O)N(O)Cc1cc(C(C)(C)C)c(O)c(C(C)(C)C)c1 [Example 15]	90%	< 40%	
CONC(c1ccccc1)c1cc(C(C)(C)C)c(O)c(C(C)(C)C)c1 (stereo not shown) [Example 18, 2,6-Bis(1,1-dimethylethyl)-4-[(methoxyamino)phenylmethyl]phenol, monohydrochloride]			inhibition at 10 µM [1, 4]: 93%; inhibition at 10 µM [2, 5]: < 40%
CN(O)C(c1ccccc1)c1cc(C(C)(C)C)c(O)c(C(C)(C)C)c1 (stereo not shown) [Example 19, 2,6-Bis(1,1-dimethylethyl)-4-[(hydroxymethylamino)phenylmethyl]phenol, monohydrochloride]			ED40 [3]: > 30 mg/kg; IC50 ([1]; 50% inhibition of LTB4 formation): 1200 nM; IC50 ([2]; 50% inhibition of PGF2α formation): 4300 nM
CC(C)C(=O)N(O)C(c1ccccc1)c1cc(C(C)(C)C)c(O)c(C(C)(C)C)c1 (stereo not shown) [Example 21, N-[[3,5-Bis(1,1-dimethylethyl)-4-hydroxyphenyl]-phenylmethyl]-N-hydroxy-2-methylpropanamide]			ED40 [3]: 5.3 mg/kg
CNC(=S)N(O)C(c1ccccc1)c1cc(C(C)(C)C)c(O)c(C(C)(C)C)c1 (stereo not shown) [Example 26, N-[[3,5-Bis(1,1-dimethylethyl)-4-hydroxyphenyl]-phenylmethyl]-N-hydroxy-N'-methylthiourea]	98%	< 40%	
CC(C)(C)c1cc(C(c2ccccc2)N(O)C(N)=O)cc(C(C)(C)C)c1O (stereo not shown) [Example 27, N-[[3,5-Bis(1,1-dimethylethyl)-4-hydroxyphenyl]-phenylmethyl]-N-hydroxyurea]			inhibition at 10 µM [1, 4]: 97%; inhibition at 10 µM [2, 5]: < 40%

The next lines start with results.

inhibition at 16 µM [1, 4]	inhibition at 16 µM [2, 5]	Compound	further results
> 90%	< 40%	CC(=O)N(O)C(C)c1cc(C(C)(C)C)c(O)c(C(C)(C)C)c1 (stereo not shown) [Example 5, N-[1-[3,5-Bis(1,1-dimethylethyl)-4-hydroxyphenyl]-ethyl]-N-hydroxyacetamide]	
> 91%	< 40%	CCNC(=O)N(O)C(C)c1cc(C(C)(C)C)c(O)c(C(C)(C)C)c1 (stereo not shown) [Example 9, N-[1-[3,5-Bis(1,1-dimethylethyl)-4-hydroxyphenyl]-ethyl]-N'-ethyl-N-hydroxyurea]	
79%	< 40%	CC(c1cc(C(C)(C)C)c(O)c(C(C)(C)C)c1)N(O)C(N)=O (stereo not shown) [Example 10, N-[1-[3,5-Bis(1,1-dimethylethyl)-4-hydroxylphenyl]-ethyl]-N-hydroxyurea]	
91%	< 40%	CCOC(=O)NC(=S)N(O)C(C)c1cc(C(C)(C)C)c(O)c(C(C)(C)C)c1 (stereo not shown) [Example 11, [[[1-[3,5-Bis(1,1-dimethylethyl)-4-hydroxyphenyl]-ethyl]hydroxyamino]-thioxomethyl]carbamic acid, ethyl ester, acetate (10:3)]	
49%	< 40%	CC(C)C(=O)ON(Cc1cc(C(C)(C)C)c(O)c(C(C)(C)C)c1)C(=O)C(C)C [Example 13, N-[[3,5-Bis(1,1-dimethylethyl)-4-hydroxyphenyl]-methyl]-2-methyl-N-[2-methyl-1-oxopropoxy]propanamide]	
97%	< 40%	CCOC(=O)N(O)C(c1ccccc1)c1cc(C(C)(C)C)c(O)c(C(C)(C)C)c1 (stereo not shown) [Example 23, N-[[3,5-Bis(1,1-dimethylethyl)-4-hydroxyphenyl]-phenylmethyl]hydroxycarbamic acid, ethyl ester]	
99%	< 40%	CCNC(=O)N(O)C(c1ccccc1)c1cc(C(C)(C)C)c(O)c(C(C)(C)C)c1 (stereo not shown) [Example 24, N-[[3,5-Bis(1,1-dimethylethyl)-4-hydroxyphenyl]-phenylmethyl]-N'-ethyl-N-hydroxyurea]	
93%	< 40%	CNC(=O)N(O)C(c1ccccc1)c1cc(C(C)(C)C)c(O)c(C(C)(C)C)c1 (stereo not shown) [Example 25, N-[[3,5-Bis(1,1-dimethylethyl)-4-hydroxyphenyl]-phenylmethyl]-N-hydroxy-N'-methylurea]	
